The text below walks through data of patent US4332805A, “Decahydroquinolinol derivatives and methods of treating cardiac arrythmias or inducing local anaesthesia with them” (priority 1979, dated 1982).

Counter-ions that a name gives are not always drawn.

The nature of the test: LAWSON test: protection against chloroform-induced ventricular fibrillation. The test is classed as in vivo, mice. The following applies: Mus musculus, po, 0.5 h; female mice, intragastric, 30 minutes before chloroform; salts (hydrochloride); read-out: AD50 (dose protecting 50% of the animals against ventricular fibrillation). The procedure:
The arrhythmia was induced, in this test, by inhalation of chloroform until breathing stopped.
For each dose of the substance to be studied, batches of 10 female mice, each of about 20 g, were used. These mice had been fasting for 18 hours before the test. A batch of 10 animals was used as control group.
A dose of the compound to be studied was first administered by intragastric route except to the controls which only received the solvent used with the compound in question. Thirty minutes later, the animals were placed under a dome-shaped receptacle containing a high concentration of chloroform obtained by means of a strongly impregnated pad.
The animals were removed when totally asphyxiated (about 2 minutes later), the thorax was rapidly opened and the ventricular rhythm observed. The dose of the compound under study which protected 50% of the animals against ventricular fibrillation was then determined.
This protective dose is expressed as AD50 in mg/kg in the following Table. […]
Another comparative test was performed under the same conditions with
several compounds included within the scope of U.S. Pat. No. 3,882,129 at
the single dose of 100 mg/kg by intragastric route.
The following results were obtained which are expressed in percentage of protection obtained against the arrhythmic effect at the studied dose: […]
Turning to `NC(=O)O[C@@H]1CCN(CCOc2ccc3ccccc3c2)[C@H]2CCCC[C@H]12` (relative stereo) [hydrogen, 2, O, 2-naphthyl, axial, 4-Carbamoyloxy-1-[2-(2-naphthyloxy)-ethyl]-trans-decahydroquinoline hydrochloride (axial form)], the ED50 was 50 mg/kg.

Consider `NC(=O)O[C@@H]1CCN(CCCOc2ccc(Cl)cc2)[C@H]2CCCC[C@H]12` (relative stereo) [hydrogen, 3, O, 4-chloro-phenyl, axial, 4-Carbamoyloxy-1-[3-(4-chloro-phenoxy)-propyl]-trans-decahydroquinoline hydrochloride (axial form)], for which the ED50 is greater than 100 mg/kg.

Consider `COc1cc(C(C)=O)ccc1OCCCN1CC[C@@H](OC(N)=O)[C@H]2CCCC[C@@H]21` (relative stereo) [1-[3-(4-Acetyl-2-methoxy-phenoxy)-propyl]-4-carbamoyloxy-trans-decahydroquinoline hydrochloride (axial form)], for which the ED50 is greater than 100 mg/kg.

As for `Cc1ccc(NC(=O)O[C@@H]2CCN(CCCOc3ccc(F)cc3)[C@H]3CCCC[C@H]23)cc1Cl` (relative stereo) [4-[3-(Chloro-4-methyl-phenyl)-carbamoyloxy]-1-[3-(4-fluoro-phenoxy)-propyl]-trans-decahydroquinoline hydrochloride (axial form)], the ED50 was greater than 100 mg/kg.

Turning to `Cc1ccc(OCCCN2CC[C@@H](OC(N)=O)[C@H]3CCCC[C@@H]32)cc1` (relative stereo) [hydrogen, 3, O, 4-methyl-phenyl, axial, 4-Carbamoyloxy-1-[3-(4-methyl-phenoxy)-propyl]-trans-decahydroquinoline hydrochloride (axial form)], the ED50 is greater than 100 mg/kg.

`O=C(Nc1ccc(Br)cc1)O[C@@H]1CCN(CCCOc2ccc(F)cc2)[C@H]2CCCC[C@H]12` (relative stereo) [4-[(4-Bromo-phenyl)-carbamoyloxy]-[1-3-(4-fluoro-phenoxy)-propyl]-trans-decahydroquinoline hydrochloride (axial form)]: the ED50 came to 150 mg/kg.

As for `NC(=O)O[C@@H]1CCN(CCCOc2cccc3ccccc23)[C@H]2CCCC[C@H]12` (relative stereo) [hydrogen, 3, O, 1-naphthyl, axial, 4-Carbamoyloxy-1-[3-(1-naphthyloxy)-propyl]-trans-decahydroquinoline hydrochloride (axial form)], the ED50 is greater than 100 mg/kg.

As for `NC(=O)O[C@H]1CCN(CCCOc2ccc(F)cc2)[C@H]2CCCC[C@H]12` (relative stereo) [4-Carbamoyloxy-1-[3-(4-fluoro-phenoxy)-propyl]-trans-decahydroquinoline hydrochloride (equatorial form)], the ED50 was 45 mg/kg.

`NC(=O)O[C@@H]1CCN(CCCSc2ccc(F)cc2)[C@H]2CCCC[C@H]12` (relative stereo) [hydrogen, 3, S, 4-fluoro-phenyl, axial, 4-Carbamoyloxy-1-[3-(4-fluoro-phenylthio)-propyl]-trans-decahydroquinoline hydrochloride (axial form)]: the ED50 is greater than 100 mg/kg.

With `CCCNC(=O)O[C@@H]1CCN(CCCOc2ccc(F)cc2)[C@H]2CCCC[C@H]12` (relative stereo) [n-propyl, 3, O, 4-fluoro-phenyl, axial, 1-[3-(4-Fluoro-phenoxy)-propyl]-4-(N-n-propyl-carbamoyloxy)-trans-decahydroquinoline hydrochloride (axial form)], the ED50 is 80 mg/kg.

`COc1ccc(OCCCN2CC[C@@H](OC(N)=O)[C@H]3CCCC[C@@H]32)cc1` (relative stereo) [hydrogen, 3, O, 4-methoxy-phenyl, axial, 4-Carbamoyloxy-1-[3-(4-methoxy-phenoxy)-propyl]-trans-decahydroquinoline hydrochloride (axial form)]: the ED50 is greater than 100 mg/kg.
